{"source": "patent US20030108955A1", "about": "“Dioxin derivatives and method of measurement therewith” (priority 2000, published 2003)", "origin": "cited, not measured here", "details": "general knowledge"}
{"molecule": "O=C(O)CCCC[C@@H]1SC[C@@H]2NC(=O)N[C@@H]21", "note": "[biotin]", "values": [{"measurement": "water solubility", "result": "insoluble to water"}]}
